10 compounds from patent US12617762B2, “Carboxy derivatives with antiinflamatory properties” (Sitryx Therapeutics Limited, priority 2019, dated 2026) can be followed below.

The test system of series [1] is NRF2 (nuclear factor erythroid 2-related factor 2). The series is described as follows: NRF2 +/-GSH activation assay (DiscoverX PathHunter NRF2 translocation kit, U2OS cells). It counts as cell-based. As to conditions: for NRF2 activation +GSH Emax / NRF2 activation −GSH Emax / −GSH Emax: normalised to DMF high control; for NRF2 activation, result in words: −GSH and/or +GSH. The method, boiled down: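 Activation is expressed as percent of plate DMF (high) versus no-DMF (low) controls, from luminescence after 6 h compound exposure at 37 °C of U2OS PathHunter cells. The +GSH condition used compound pre-incubated 30 min in 6 mM working GSH; −GSH cells received compound directly.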

In series [2] the test system is human cryopreserved hepatocytes. The series is described as follows: Hepatocyte stability assay, human. It counts as in vitro ADME. The method, boiled down:
(§1)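 Thawed cryopreserved hepatocytes (viability >70%) at 0.5×10^6 cells/mL in Leibovitz buffer were preincubated at 37° C, then given 10 μM compound (0.1% DMSO) in duplicate. Samples at 0–60 min were quenched in acetonitrile and analysed by LC-MS/MS. Intrinsic clearance and half-life were derived from ln % remaining versus time.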

The test system of series [3] is IL-6 cytokine output from THP-1s. The series is described as follows: THP-1 AlphaLISA IL-6 cytokine inhibition assay. Type of series: cell-based. The essentials: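 THP-1 cells differentiated with PMA for 72 h, then pre-incubated with compound 30 min, stimulated with LPS 24 h, then Nigericin 1 h, all at 37° C. Supernatant IL-6 measured by AlphaLISA. Percentage inhibition normalized to +/− LPS plate controls.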
(In general: In Alpha technology, singlet oxygen from a donor bead excites a nearby acceptor bead.)

The test system of series [4] is mouse cryopreserved hepatocytes. The series is described as follows: Hepatocyte stability assay, mouse. It counts as in vitro ADME. The method, boiled down: as §1
For series [5], the system named is IL-1β cytokine output from THP-1s. The series is described as follows: THP-1 AlphaLISA IL-1β cytokine inhibition assay. It counts as cell-based. The method, boiled down:
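IL-1β release by AlphaLISA, expressed as % inhibition against +/− LPS controls on each plate. Differentiation: PMA, 72 h. Sequence: 30 min compound pre-treatment, LPS 24 h, Nigericin 1 h before supernatant harvest, all at 37° C./5% CO2.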

Series [6] is described as follows: Hepatocyte stability assay, human. Type of series: in vitro ADME. Particulars: human, hepatocytes; for hepatocyte CLint at 10 μM: Hepatocyte stability Clint; for half-life at 10 μM: Hepatocyte stability T½. The method, boiled down: as §1
A short description of series [7]: Hepatocyte stability assay, mouse. It counts as in vitro ADME. As to conditions: mouse, hepatocytes; for hepatocyte CLint at 10 μM: Hepatocyte stability Clint; for half-life at 10 μM: Hepatocyte stability T½. The method, boiled down: as §1
Where [8] appears, read: Human hepatocytes, compound 10 μM, 0.5×10^6 cells/mL, 60 minutes (a n=2, c n=4).
[9] abbreviates: differentiated THP-1 cells, LPS then nigericin.
[10] abbreviates: Mouse hepatocytes, compound 10 μM, 0.5×10^6 cells/mL, 60 minutes (a n=2, b n=3).
Where [11] appears, read: −GSH, Table 5 exo vs endo comparison.
The mark [12] stands for this setting: Homo sapiens, THP-1, differentiated THP-1 cells, LPS then nigericin.
The mark [13] stands for this setting: Homo sapiens, THP-1, differentiated THP-1 cells, data from repeated experiments.
[14] abbreviates: Homo sapiens, THP-1, Table 3, head to head comparison of exo vs endo double bond compounds.
Where [15] appears, read: +GSH, 30 minute compound-GSH pre-incubation, read-out: NRF2 activation +GSH EC50.
Where [16] appears, read: −GSH, U2OS PathHunter cells, 6 hours compound treatment, read-out: NRF2 activation −GSH EC50.
[17] abbreviates: Homo sapiens, differentiated THP-1 cells, LPS then nigericin.

Where a name gives a salt, the structure may show the parent alone. Read-outs that look alike come from different tables or passages of the source. A value given as a limit tells only on which side of the number the result lay.

Turning to `C=C(CC(=O)OCCCCCCCC)C(=O)O` [4-octyl itaconate, 4-Octyl itaconate, reference compound], the “NRF2 activation +GSH Emax” value in series [1] (+GSH) amounted to 148%. Also, the “NRF2 activation −GSH Emax” value in series [1] (−GSH) was 165%. Moreover, the “Hepatocyte stability Clint” value was found to be 401 μL min^−1 10^−6 cells in series [2] (setting [8]) and 351 μL min^−1 10^−6 cells in series [4] (setting [10]). Further, the “Hepatocyte stability T½” value in series [2] (setting [8]) and in series [4] (setting [10]) was 4 min throughout. In addition, the IC50 in series [3] (setting [9]) stood at 19.1 µM; in series [5] (setting [9]), 37.8 µM.
Turning to `C=C(Cc1nc(CCCCCCCC)no1)C(=O)O` [Example 1, 2-((3-octyl-1,2,4-oxadiazol-5-yl)methyl)acrylic acid], the “NRF2 activation +GSH Emax” value in series [1] (+GSH) is 187%. In addition, the “NRF2 activation, result in words” value in series [1] is “activated NRF2 more potently and with higher efficacy than 4-octyl itaconate and 2-(2-chlorobenzyl)acrylic acid”. In addition, the “NRF2 activation −GSH Emax” value in series [1] (−GSH) was 243%. In addition, the “−GSH Emax” value in series [1] (setting [11]) is on record as 243%. The hepatocyte CLint at 10 μM is 115 µL/min/1e6 cells in series [6] and 118 µL/min/1e6 cells in series [7]. Moreover, the half-life at 10 μM in series [6] and in series [7] was 12 min each time. The “stability in human cryopreserved hepatocytes, in words” value in series [2] (human, hepatocytes) is given as “improved stability”. Further, the IC50 in series [3] (setting [12]) was determined as 3.7 µM; in series [3] (setting [13]), 4 µM; in series [5] (setting [14]) it was 4.9 µM; in series [5] (Homo sapiens, THP-1, Table 3, data from repeated experiment), 4.7 µM; in series [5] (setting [12]), 4.9 µM; in series [5] (setting [13]), 4.7 µM. In series [4] (mouse, hepatocytes), the “stability in mouse cryopreserved hepatocytes, in words” value is reported as “improved stability”. In series [5] (compared with 4-octyl itaconate and 2-(2-chlorobenzyl)acrylic acid), the “reduction of cytokine release versus comparators, in words” value is “reduced cytokine release more effectively than 4-octyl itaconate and 2-(2-chlorobenzyl)acrylic acid”.
With `C=C(Cc1nc(C2(c3ccc(C(F)(F)F)cc3)CC2)co1)C(=O)O` [Example 103, 2-((4-(1-(4-(trifluoromethyl)phenyl)cyclopropyl)oxazol-2-yl)methyl)acrylic acid], the EC50 in series [1] (setting [15]) is 42.7 µM; in series [1] (setting [16]), 40.5 µM. In addition, the “NRF2 activation +GSH Emax” value in series [1] (+GSH) is 190%. Also, in series [1] (−GSH), the “NRF2 activation −GSH Emax” value was 306%. The results for the hepatocyte CLint at 10 μM in series [6] and in series [7] were 43 µL/min/1e6 cells and 94 µL/min/1e6 cells, respectively. Also, the half-life at 10 μM in series [6] amounted to 31 min; in series [7] it was 16 min. Further, the IC50 is 19.7 µM in series [3] (setting [12]) and 14.4 µM in series [5] (setting [12]).
On to `C=C(Cc1cc(CCCCCCCC)ccn1)C(=O)O` [Example 104, 2-((4-octylpyridin-2-yl)methyl)acrylic acid trifluoroacetic acid salt], for which the results for the EC50 in series [1] (setting [15]) and in series [1] (setting [16]) were 8.2 µM and 7.5 µM, respectively. Further, the “NRF2 activation +GSH Emax” value in series [1] (+GSH) turned out to be 216%. Further, the “NRF2 activation −GSH Emax” value in series [1] (−GSH) is 293%. The results for the hepatocyte CLint at 10 μM in series [6] and in series [7] were 370 µL/min/1e6 cells and over 460 µL/min/1e6 cells, respectively. Also, the values for the half-life at 10 μM in series [6] and in series [7] were 3 min and under 3 min, respectively. In addition, the values for the IC50 in series [3] (setting [12]) and in series [5] (setting [12]) were 2.1 µM and 11.6 µM, respectively.
As to `C=C(Cc1ccc(CCCCCCCC)cn1)C(=O)O` [Example 105], the EC50 in series [1] (setting [15]) and in series [1] (setting [16]) was 5.3 µM throughout. The “NRF2 activation +GSH Emax” value in series [1] (+GSH) is listed as 166%. Also, the “NRF2 activation −GSH Emax” value in series [1] (−GSH) was found to be 257%. For the same compound, the hepatocyte CLint at 10 μM in series [6] and in series [7] was over 460 µL/min/1e6 cells throughout. Besides, the half-life at 10 μM in series [6] and in series [7] was under 3 min in each case. Moreover, the IC50 is 2 µM in series [3] (setting [17]) and 4.2 µM in series [5] (setting [12]).
For `C=C(C(=O)O)C(O)c1nc(CCCCCCCC)no1` (stereo not shown) [Example 108, 2-(hydroxy(3-octyl-1,2,4-oxadiazol-5-yl)methyl)acrylic acid], the EC50 in series [1] (setting [15]) stood at 29 µM; in series [1] (setting [16]), 19.7 µM. Besides, the “NRF2 activation +GSH Emax” value in series [1] (+GSH) came to 213%. Also, the “NRF2 activation −GSH Emax” value in series [1] (−GSH) came out at 299%. The hepatocyte CLint at 10 μM was 10 µL/min/1e6 cells in series [6] and 438 µL/min/1e6 cells in series [7]. In addition, the half-life at 10 μM in series [6] worked out at 163 min; in series [7], 4 min. In addition, the IC50 in series [3] (setting [12]) was 8.3 µM; in series [5] (setting [12]) it was 18.4 µM.
With `C=C(C(=O)O)C(OC)c1nc(CCCCCCCC)no1` (stereo not shown) [Example 110, 2-(methoxy(3-octyl-1,2,4-oxadiazol-5-yl)methyl)acrylic acid], the EC50 in series [1] (setting [15]) came to 48.8 µM; in series [1] (setting [16]), 38.9 µM. Also, the “NRF2 activation +GSH Emax” value in series [1] (+GSH) was determined as 132%. The “NRF2 activation −GSH Emax” value in series [1] (−GSH) came to 153%. In addition, the hepatocyte CLint at 10 μM in series [6] and in series [7] was over 460 µL/min/1e6 cells in each case. Also, the half-life at 10 μM in series [6] and in series [7] was under 3 min in each case. The IC50 in series [3] (setting [17]) was 9.8 µM; in series [5] (setting [12]) it was over 31.6 µM.
With `C=C(Cc1nc(Cc2ccc(C3CCCC3)cc2)no1)C(=O)O` [Example 112, 2-((3-(4-cyclopentylbenzyl)-1,2,4-oxadiazol-5-yl)methyl)acrylic acid], the EC50 in series [1] (setting [15]) amounted to 10.7 µM; in series [1] (setting [16]), 7.3 µM. In addition, the “NRF2 activation +GSH Emax” value in series [1] (+GSH) was found to be 283%. Besides, the “NRF2 activation −GSH Emax” value in series [1] (−GSH) worked out at 284%. In addition, the hepatocyte CLint at 10 μM amounted to 25 µL/min/1e6 cells in series [6] and 160 µL/min/1e6 cells in series [7]. For the same compound, the half-life at 10 μM in series [6] is 61 min; in series [7], 12 min. The results for the IC50 in series [3] (setting [12]) and in series [5] (setting [12]) were 4.4 µM and 14.2 µM, respectively.
For the compound `C=C(Cc1nc(C(F)(F)c2ccc(SC(F)(F)F)cc2)no1)C(=O)O` [Example 155, 2-((3-(difluoro(4-((trifluoromethyl)thio)phenyl)methyl)-1,2,4-oxadiazol-5-yl)methyl)acrylic acid], the EC50 in series [1] (setting [15]) worked out at 13.7 µM; in series [1] (setting [16]), 11.2 µM. The “NRF2 activation +GSH Emax” value in series [1] (+GSH) amounted to 123%. In series [1] (−GSH), the “NRF2 activation −GSH Emax” value was found to be 201%. Moreover, the hepatocyte CLint at 10 μM was found to be 8 µL/min/1e6 cells in series [6] and 87 µL/min/1e6 cells in series [7]. For the same compound, the half-life at 10 μM came to 201 min in series [6] and 17 min in series [7]. In addition, the half-maximal inhibitory concentration (IC50) in series [3] (setting [17]) came out at 13.1 µM; in series [5] (setting [12]), 9.1 µM.
Turning to `C/C(=C\c1nc(C2(c3ccc(Br)cc3)CC2)no1)C(=O)O` [Example 168], the EC50 is over 100 µM in series [1] (setting [15]); 1.4 µM in series [1] (−GSH, Table 5 exo vs endo comparison, read-out: −GSH EC50); 1.4 µM in series [1] (setting [16]). In addition, the “NRF2 activation +GSH Emax” value in series [1] (+GSH) came to 16%. In series [1], the “NRF2 activation, result in words” value is on record as “more potent in NRF2 (-GSH) than Example 50”. For the same compound, the “NRF2 activation −GSH Emax” value in series [1] (−GSH) is on record as 69%. In addition, the “−GSH Emax” value in series [1] (setting [11]) came to 69%. For the same compound, the hepatocyte CLint at 10 μM in series [6] amounted to 69 µL/min/1e6 cells; in series [7], 393 µL/min/1e6 cells. The half-life at 10 μM is 18 min in series [6] and 5 min in series [7]. For the same compound, the IC50 is 51.2 µM in series [3] (setting [17]), 33.6 µM in series [5] (setting [14]) and 33.6 µM in series [5] (setting [12]).

Usually IC50 stands for the concentration that inhibits the measured activity by half. The hepatocyte CLint is the capacity of the preparation to metabolise the compound, expressed as a volume cleared per time. What is called half-life is the time in which the quantity being followed falls by half. The EC50 is the concentration at which the effect is half-maximal.
